This is an account of results in US6479501B2 (priority 1996, dated 2002).

The target in data set [1] is T1, Acetylcholinesterase (Rattus norvegicus, UniProt P37136).
T1 construct: corpora striata dissected free, weighted and homogenized in 19 volumes; from tissue; host or cells: rat corpus striatum homogenate
T1 sequence (P37136 32-614): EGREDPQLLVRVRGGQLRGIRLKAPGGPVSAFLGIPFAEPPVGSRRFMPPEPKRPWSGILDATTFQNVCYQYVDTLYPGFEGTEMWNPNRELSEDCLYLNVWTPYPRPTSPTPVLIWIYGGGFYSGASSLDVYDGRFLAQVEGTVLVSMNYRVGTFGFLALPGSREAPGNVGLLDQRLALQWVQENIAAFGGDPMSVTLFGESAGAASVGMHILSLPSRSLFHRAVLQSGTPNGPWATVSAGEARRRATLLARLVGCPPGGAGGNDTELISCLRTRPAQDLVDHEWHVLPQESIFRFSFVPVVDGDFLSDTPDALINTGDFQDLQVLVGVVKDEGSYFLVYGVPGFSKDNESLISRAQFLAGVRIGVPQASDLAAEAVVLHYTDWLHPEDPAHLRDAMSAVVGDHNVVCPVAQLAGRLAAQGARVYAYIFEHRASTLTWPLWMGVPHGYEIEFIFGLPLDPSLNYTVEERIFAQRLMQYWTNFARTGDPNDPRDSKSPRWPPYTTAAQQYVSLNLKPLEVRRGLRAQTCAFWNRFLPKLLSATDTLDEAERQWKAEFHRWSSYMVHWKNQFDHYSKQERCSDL
The experiment in a line: biochemical. On the set-up: species or system Male Wistar rats.

In data set [2] the target is T2, Monoamine Oxidase A (Rattus norvegicus, UniProt P21396).
T2 construct: serves as the tissue source for mitochondrial monoamine oxidase; from tissue; host or cells: rat whole brain minus cerebellum, P2 mitochondrial pellet
T2 sequence (P21396 1-526): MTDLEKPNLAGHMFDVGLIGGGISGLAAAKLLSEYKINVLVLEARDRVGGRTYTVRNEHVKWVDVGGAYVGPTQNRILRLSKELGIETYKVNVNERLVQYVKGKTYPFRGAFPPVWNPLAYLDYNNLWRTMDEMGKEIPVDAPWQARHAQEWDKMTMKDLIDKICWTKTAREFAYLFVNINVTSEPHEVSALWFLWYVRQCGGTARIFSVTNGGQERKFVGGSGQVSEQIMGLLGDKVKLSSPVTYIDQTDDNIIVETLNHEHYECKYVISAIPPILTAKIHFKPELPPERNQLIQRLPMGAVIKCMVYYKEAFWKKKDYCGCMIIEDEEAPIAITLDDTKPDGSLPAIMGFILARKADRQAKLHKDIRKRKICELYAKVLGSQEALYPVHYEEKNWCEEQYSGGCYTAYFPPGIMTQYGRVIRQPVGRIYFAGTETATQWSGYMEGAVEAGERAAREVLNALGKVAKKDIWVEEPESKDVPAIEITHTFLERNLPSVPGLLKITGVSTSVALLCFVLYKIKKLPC
The experiment in a line: in vitro inhibition of monoamine oxidase assay, monoamine oxidase-A. In kind it is biochemical, Male Wistar rats. Conditions: rat brain mitochondrial monoamine oxidase; substrate [3H]-5-hydroxytryptamine 200 μM; 30 minutes at 37° C. As for the experimental part:
In this assay, a modification of an assay described by M. V. Kindt, et al., Europ. J. Pharmnacol. 146: 313-318 1988.
1. Phosphate buffer (0.5 M), pH 7.4; 134.4 g dibasic sodium phosphate heptahydrate q.s. to 1 liter in distilled water (A) 17.3 g monobasic sodium phosphate q.s. to 250 ml in distilled water (B) Adjust pH of A to 7.4 by slowly adding B (volumes as needed) Dilute 1:10 in distilled water (0.05 M phosphate buffer, pH 7.4) 2. 0.25 M Sucrose (phosphate buffered): 21.4 g sucrose, q.s. to 250 nil with 0.05 M phosphate buffer a. serotonin creatine sulphate (5-hydroxytryptamine) is obtained from Sigma Chemical Company. A 5 mM stock solution ig made up in 0.01 N-hydrochloric acid. The solution is used to dilute the specific activity of the [^3H]-hydroxytryptamine. […]
b. [^3H]-5-hydroxytryptamine binoxalate (20-30 Ci/mmol) is obtained from New England Nuclear. c. Add 12 μl of [^3H]-5-hydroxytryptamine to 2 ml of the 5 mM 5-hydroxytryptamine solution. (Final amine concentration in the assay is 200 μM: see below.)
5. Equal amounts of monoamine oxidase-A (5-hydroxyttyptamine) and monoamine oxidase-B (β-phenethylamine) substrates are combined for simultaneously testing both monoamine oxidase types, i.e., mixed stock solution of 2.5 mM 5-hydroxytryptamine and 2.5 mM β-phenethylamine. 40 μl of this mixed solution gives a 200 μM final concentration of each amine in the assay. When testing only one monoamine oxidase type, the individual 5 mM stock solutions must be diluted 1:1 with distilled water prior to adding 40 μl to the incubation mixture; i.e., same 200 μM final amine concentration.
6. Stock solutions of test drugs are made up in appropriate vehicles and serially diluted to give final concentrations ranging from 10^−7 to 10^−3 molar in the assay. […]
Tubes are preincubated for 15 minutes at 37° C. and the assay is started by adding 40 μl of combined substrate ([^3H]-5-hydroxytryptamine and [^14C]-β-phenethylamin) at 15 second intervals. […] Tissue blank values are determined by adding the acid before the radioactive substrate. […] IC50 values are determined by log-probit analysis.

In data set [3] the target is T3, Monoamine Oxidase B (Rattus norvegicus, UniProt P19643).
T3 construct: serves as the tissue source for mitochondrial monoamine oxidase; from tissue; host or cells: rat whole brain minus cerebellum, P2 mitochondrial pellet
T3 sequence (P19643 1-520): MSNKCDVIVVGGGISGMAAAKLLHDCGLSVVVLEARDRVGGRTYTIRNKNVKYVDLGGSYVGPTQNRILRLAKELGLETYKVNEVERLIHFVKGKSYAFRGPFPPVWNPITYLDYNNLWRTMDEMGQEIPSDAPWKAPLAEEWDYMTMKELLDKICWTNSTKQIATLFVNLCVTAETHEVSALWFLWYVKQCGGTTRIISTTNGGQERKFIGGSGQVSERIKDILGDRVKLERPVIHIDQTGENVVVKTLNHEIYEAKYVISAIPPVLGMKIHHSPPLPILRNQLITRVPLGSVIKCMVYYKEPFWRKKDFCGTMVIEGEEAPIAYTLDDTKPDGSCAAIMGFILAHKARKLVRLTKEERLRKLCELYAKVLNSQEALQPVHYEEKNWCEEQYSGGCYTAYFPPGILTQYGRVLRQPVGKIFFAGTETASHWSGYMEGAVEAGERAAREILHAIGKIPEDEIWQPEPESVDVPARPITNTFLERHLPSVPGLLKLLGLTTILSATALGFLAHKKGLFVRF
Briefly: in vitro inhibition of monoamine oxidase assay, monoamine oxidase-B. In kind it is biochemical, Male Wistar rats. The settings on record: rat brain mitochondrial monoamine oxidase; substrate [14C]-β-phenethylamine 200 μM; 30 minutes at 37° C.
Protocol: Phosphate buffer (0.5 M), pH 7.4; 134.4 g dibasic sodium phosphate heptahydrate q.s. to 1 liter in distilled water (A) 17.3 g monobasic sodium phosphate q.s. to 250 ml in distilled water (B) Adjust pH of A to 7.4 by slowly adding B (volumes as needed) Dilute 1:10 in distilled water (0.05 M phosphate buffer, pH 7.4) 2. 0.25 M Sucrose (phosphate buffered): 21.4 g sucrose, q.s. to 250 nil with 0.05 M phosphate buffer a. β-phenethylamine is obtained from Sigma Chemical Company. A 5 mM stock solution is made up in 0.01 N-hydrochloric acid. The solution is used to dilute the specific activity of the [^14C]-β-phenethylamine.
b. β-[ethyl-1-^14C]-phenethylamine hydrochloride (40-50 mCi/mmol) is obtained from New England Nuclear. c. Add 12 μl of [^14C]-β-phenothylaamine to 2 ml of the 5 mM β-phenethylamine solution. (Final amine concentration in the assay is 200 μM: see below.) […]

In general, IC50 refers to the midpoint of a concentration-inhibition curve. As a reminder, the melting point is the temperature, or range, at which the solid turns liquid.

Structures can show the parent of a compound that is named as a salt. Where two headings read alike, the source gives them in different places.

In data set [1], `CN(C)C(=O)Oc1ccc2c(c1)c1c(n2C)C2(CCNCC2)CC1` [1,4-Dihydro-7-dimethylaminocarbonyloxy-4-methylspirorcyclopentfblindole-3(2H), 4′-piperidine]hemihydrate] yielded an IC50 of 64 µM.

Take `Cn1c2c(c3ccccc31)CCC21CCNCC1` [1,4-Dihydro-4-methylspiro[cyclopent[b]indole-3(2H), 4′-piperidine]hydrochloride]: the concentration for half-maximal inhibition (IC50) in data set [1] came out at 84.1 µM.

Turning to `COc1cccc(CN2CCC3(CCc4c3n(C)c3ccccc43)CC2)c1` [1,4-Dihydro-1′-(3-methoxyphenyl)methyl-4-methylspiro[cyclopent[b]indole-3(2H), 4′piperidine]], in data set [2], the 50% inhibitory concentration (IC50) came to 51.2 µM.

For `COc1ccc(NN=C2CCCC23CCNCC3)cc1` [8-Azaspiror4,5]decane-1-[N′-(4-methoxy)phenyl]hydrazone hydrochloride], the IC50 came out at 3.7 µM in data set [3] and 37.2 µM in data set [2].

Consider `COc1ccc(CN2CCC3(CCc4c3n(C)c3ccccc43)CC2)cc1` [1,4-Dihydro-1′-(4-methoxyphenyl)methyl-4-methylspiro[cyclopent[b]indole-3(2H), 4′-piperidine]], for which the IC50 is 125 µM in data set [3], 98.6 µM in data set [2] and 65.2 µM in data set [1] (read-out: Inhibition of Acetylcholinesterase Activity IC50).

In data set [1], `Cn1c2c(c3cc(O)ccc31)CCC21CCN(Cc2ccccc2)CC1` [1,4-Dihydro-7-hydroxy-4-methyl-1′-phenylmethylspiro[cyclopent[b]indole-3(2H), 4′-piperidine hydrochloride] had an IC50 of 20.4 µM.

Turning to `COc1ccc(NN=C2CCCC23CCNCC3)cc1` (as salt: hydrochloride) [8-Azaspiror4,5]decane-1-[N′-(4-methoxy)phenyl]hydrazone hydrochloride], the melting point is 252 to 253 °C.
